Patent US10150748B2, “Salt or abexinostat, associated crystalline form, a process for their preparation and pharmaceutical compositions containing them” (Pharmacyclics LLC, priority 2013, dated 2018)

Test: Hygroscopicity by dynamic vapor sorption (DVS)
Assay type: physicochemical
Conditions: relative humidities from 0% to 90% at 25° C.
Method: Hygroscopicity of form I of abexinostat tosylate was assessed using dynamic vapor sorption (DVS) technique. 5 to 10 mg of the drug substance test sample were accurately weighed into a DVS sample pan working at 25° C. under controlled humidity. The mass variation was recorded whilst drying under 0 percent RH (relative humidity) and during two subsequent cycles of increasing and decreasing linear variations of relative humidity in the range 0-90 percent RH at a rate of 10 percent per hour. The relative humidity was maintained constant when it reached either 0 or 90 percent RH until the mass variation was less than 0.002 percent, per minute within a limit of time of 15 h.

increase in weight detected by DVS analysis: lower than 0.5%
SMILES: CN(C)Cc1c(C(=O)NCCOc2ccc(C(=O)NO)cc2)oc2ccccc12.Cc1ccc(S(=O)(=O)O)cc1 [form I of abexinostat tosylate, N-hydroxy-4-{2-[3-(N,N-dimethylaminomethyl)benzofuran-2-ylcarbonylamino]ethoxy}benzamide tosylate]
